Values after ≈ are worked out from the molar mass of the structure shown. Where two headings read alike, the source gives them in different places.
What was measured:
C. albicans ATCC 90028 = assay: microbe, parasite or virus in culture; conditions: Candida albicans
[1] = test system: K. pneumoniae ATCC 700603; assay: microbe, parasite or virus in culture; conditions: for MIC: Klebsiella pneumoniae
In short: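 Broth microdilution following CLSI M07 and M100. Inocula were diluted from a 0.5 McFarland suspension in CAMHB. MIC is the lowest compound concentration inhibiting visible growth, or beyond which OD600 ceased to decrease.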

Beta2-adrenoreceptor = molecular target: T1, Beta2-adrenoreceptor (Homo sapiens, UniProt P07550); assay: Off-target screening (CEREP); format: binding; conditions: 10 µM, duplicates; read-out: percent inhibition
T1 construct: purchased Eurofins CEREP SA
Procedure: (§1) Supplementary Table 1 │ Off-target activity screening f or MCP compou nds […]
(§2) The assays given in the table above were conducted at Eurofins CEREP S A (Celle-Lévescault, France) and were run as single point measurements in duplicates in the presence of 10 µ M of the test compound and reported as percent inhibition of the radioligand signal or control enzymatic activity. n.d., not

Muscarinic receptor M2 = molecular target: T2, Muscarinic receptor M2 (Homo sapiens, UniProt P08172); assay: Off-target screening (CEREP); format: binding; conditions: 10 µM, duplicates; read-out: percent inhibition
T2 construct: purchased Eurofins CEREP SA
T2 sequence (P08172 1-466): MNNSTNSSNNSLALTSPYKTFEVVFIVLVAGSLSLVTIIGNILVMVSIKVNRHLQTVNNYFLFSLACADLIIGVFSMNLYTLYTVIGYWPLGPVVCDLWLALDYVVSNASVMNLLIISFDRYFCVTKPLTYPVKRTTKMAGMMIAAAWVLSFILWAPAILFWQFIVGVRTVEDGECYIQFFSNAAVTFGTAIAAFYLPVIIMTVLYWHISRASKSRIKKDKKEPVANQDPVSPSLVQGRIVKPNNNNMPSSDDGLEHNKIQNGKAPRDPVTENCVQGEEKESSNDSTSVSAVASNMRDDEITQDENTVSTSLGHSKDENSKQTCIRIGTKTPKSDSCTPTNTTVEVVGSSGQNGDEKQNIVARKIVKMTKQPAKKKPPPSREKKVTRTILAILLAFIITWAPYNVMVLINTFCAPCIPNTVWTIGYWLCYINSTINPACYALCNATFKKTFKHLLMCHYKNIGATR
Procedure: as §1, §2

Dopamine D1 receptor = molecular target: T3, Dopamine D1 receptor (Homo sapiens, UniProt P21728); assay: Off-target screening (CEREP); format: binding; conditions: 10 µM, duplicates; read-out: percent inhibition
T3 construct: purchased Eurofins CEREP SA
Procedure: as §1, §2

Histamine H1 receptor = molecular target: T4, Histamine H1 receptor (Homo sapiens, UniProt P35367); assay: Off-target screening (CEREP); format: binding; conditions: 10 µM, duplicates; read-out: percent inhibition
T4 construct: purchased Eurofins CEREP SA
Procedure: as §1, §2

Estrogen receptor alpha = molecular target: T5, Estrogen receptor alpha (Homo sapiens, UniProt P03372); assay: Off-target screening (CEREP); format: binding; conditions: 10 µM, duplicates; read-out: percent inhibition
T5 construct: purchased Eurofins CEREP SA
Procedure: as §1, §2

Cannabinoid receptor CB1 = molecular target: T6, Cannabinoid receptor CB1 (Homo sapiens, UniProt P21554); assay: Off-target screening (CEREP); format: binding; conditions: 10 µM, duplicates; read-out: percent inhibition
T6 construct: purchased Eurofins CEREP SA
Procedure: as §1, §2

Mu opioid receptor = molecular target: T7, Mu opioid receptor (Homo sapiens, UniProt P35372); assay: Off-target screening (CEREP); format: binding; conditions: 10 µM, duplicates; read-out: percent inhibition
T7 construct: purchased Eurofins CEREP SA
Procedure: as §1, §2

Beta1-adrenoreceptor = molecular target: T8, Beta1-adrenoreceptor (Homo sapiens, UniProt P08588); assay: Off-target screening (CEREP); format: binding; conditions: 10 µM, duplicates; read-out: percent inhibition
T8 construct: purchased Eurofins CEREP SA
Procedure: as §1, §2

5HT1A = molecular target: T9, 5HT1A (Homo sapiens, UniProt P08908); assay: Off-target screening (CEREP); format: binding; conditions: 10 µM, duplicates; read-out: percent inhibition
T9 construct: purchased Eurofins CEREP SA
T9 sequence (P08908 1-422): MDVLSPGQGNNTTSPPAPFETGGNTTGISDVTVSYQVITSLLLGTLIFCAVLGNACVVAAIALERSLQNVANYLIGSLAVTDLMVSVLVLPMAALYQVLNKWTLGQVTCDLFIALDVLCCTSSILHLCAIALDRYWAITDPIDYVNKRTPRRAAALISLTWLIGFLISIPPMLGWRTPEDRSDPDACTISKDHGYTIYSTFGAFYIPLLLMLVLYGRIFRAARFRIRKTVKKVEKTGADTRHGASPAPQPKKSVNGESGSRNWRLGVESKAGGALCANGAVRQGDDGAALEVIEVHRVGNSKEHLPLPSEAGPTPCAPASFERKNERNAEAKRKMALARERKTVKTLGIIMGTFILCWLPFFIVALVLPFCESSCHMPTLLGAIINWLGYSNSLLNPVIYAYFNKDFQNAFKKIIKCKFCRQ
Procedure: as §1, §2

5HT2B = molecular target: T10, 5HT2B (Homo sapiens, UniProt P41595); assay: Off-target screening (CEREP); format: binding; conditions: 10 µM, duplicates; read-out: percent inhibition
T10 construct: purchased Eurofins CEREP SA
Procedure: as §1, §2

[2] = molecular target: T11, Angiotensin II receptor 1 (Homo sapiens, UniProt P30556); assay: Off-target screening (CEREP); format: binding; conditions: 10 µM, duplicates; read-out: percent inhibition
T11 construct: purchased Eurofins CEREP SA
T11 sequence (P30556 1-359): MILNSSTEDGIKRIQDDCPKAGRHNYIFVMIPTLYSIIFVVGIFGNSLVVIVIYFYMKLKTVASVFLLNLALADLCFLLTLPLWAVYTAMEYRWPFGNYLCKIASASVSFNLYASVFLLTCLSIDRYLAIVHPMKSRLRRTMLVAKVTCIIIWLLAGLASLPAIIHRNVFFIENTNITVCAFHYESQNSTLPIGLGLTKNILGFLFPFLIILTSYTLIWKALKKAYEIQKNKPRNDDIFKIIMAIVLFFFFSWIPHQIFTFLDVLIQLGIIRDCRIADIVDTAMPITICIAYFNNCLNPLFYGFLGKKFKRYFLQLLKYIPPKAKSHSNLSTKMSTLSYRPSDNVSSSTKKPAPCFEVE
Procedure: as §1, §2

[3] = test system: GABA-A (benzodiazapine binding site); assay: Off-target screening (CEREP); parameters: species or system rat; conditions: 10 µM, duplicates
Procedure: as §1, §2

PCP receptor = assay: Off-target screening (CEREP); format: binding, rat; conditions: 10 µM, duplicates
Procedure: as §1, §2

[4] = test system: Ca2+ channel (diltiazem site); assay: Off-target screening (CEREP); format: binding, rat; conditions: 10 µM, duplicates
Procedure: as §1, §2

[5] = test system: GABA Cl- channel receptor; assay: Off-target screening (CEREP); format: binding, rat; conditions: 10 µM, duplicates
Procedure: as §1, §2

[6] = ATCC700603, CAMHB, mode of at least three replicates (RO7036668 one replicate)

T1 sequence (P07550 whole entry): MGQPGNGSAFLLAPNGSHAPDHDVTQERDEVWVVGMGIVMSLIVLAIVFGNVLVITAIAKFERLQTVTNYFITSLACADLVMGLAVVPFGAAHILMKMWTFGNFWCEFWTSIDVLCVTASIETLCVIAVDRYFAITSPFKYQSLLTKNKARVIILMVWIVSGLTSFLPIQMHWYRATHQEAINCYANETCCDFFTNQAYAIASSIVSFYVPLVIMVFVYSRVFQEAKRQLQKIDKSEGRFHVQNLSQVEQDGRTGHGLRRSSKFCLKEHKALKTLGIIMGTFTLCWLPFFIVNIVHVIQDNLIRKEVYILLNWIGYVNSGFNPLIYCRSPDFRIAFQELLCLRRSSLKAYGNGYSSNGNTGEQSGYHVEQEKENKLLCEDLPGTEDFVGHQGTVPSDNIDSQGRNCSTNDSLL
T6 sequence (P21554 whole entry): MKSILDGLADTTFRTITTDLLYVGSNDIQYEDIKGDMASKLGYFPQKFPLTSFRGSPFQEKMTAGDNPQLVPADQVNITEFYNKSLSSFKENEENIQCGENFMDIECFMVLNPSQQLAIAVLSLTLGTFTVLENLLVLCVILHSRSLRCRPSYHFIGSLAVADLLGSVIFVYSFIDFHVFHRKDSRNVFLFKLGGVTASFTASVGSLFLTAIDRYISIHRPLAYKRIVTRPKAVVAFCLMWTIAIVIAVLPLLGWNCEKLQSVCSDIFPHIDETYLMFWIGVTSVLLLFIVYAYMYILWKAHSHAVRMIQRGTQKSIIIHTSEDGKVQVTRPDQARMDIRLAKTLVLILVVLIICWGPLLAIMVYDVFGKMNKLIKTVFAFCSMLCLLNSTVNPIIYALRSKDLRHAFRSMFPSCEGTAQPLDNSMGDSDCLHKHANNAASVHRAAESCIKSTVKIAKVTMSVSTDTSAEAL
T7 sequence (P35372 whole entry): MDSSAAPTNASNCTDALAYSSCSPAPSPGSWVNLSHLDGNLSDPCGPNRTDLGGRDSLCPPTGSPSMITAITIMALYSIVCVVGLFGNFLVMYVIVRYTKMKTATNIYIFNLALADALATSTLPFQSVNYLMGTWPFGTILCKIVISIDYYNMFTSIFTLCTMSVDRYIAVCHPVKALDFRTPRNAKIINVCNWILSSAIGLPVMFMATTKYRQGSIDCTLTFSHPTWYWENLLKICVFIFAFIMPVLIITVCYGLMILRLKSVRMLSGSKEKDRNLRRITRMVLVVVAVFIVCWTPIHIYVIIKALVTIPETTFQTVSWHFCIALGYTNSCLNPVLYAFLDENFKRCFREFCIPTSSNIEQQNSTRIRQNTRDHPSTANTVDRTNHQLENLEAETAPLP
T4 sequence (P35367 whole entry): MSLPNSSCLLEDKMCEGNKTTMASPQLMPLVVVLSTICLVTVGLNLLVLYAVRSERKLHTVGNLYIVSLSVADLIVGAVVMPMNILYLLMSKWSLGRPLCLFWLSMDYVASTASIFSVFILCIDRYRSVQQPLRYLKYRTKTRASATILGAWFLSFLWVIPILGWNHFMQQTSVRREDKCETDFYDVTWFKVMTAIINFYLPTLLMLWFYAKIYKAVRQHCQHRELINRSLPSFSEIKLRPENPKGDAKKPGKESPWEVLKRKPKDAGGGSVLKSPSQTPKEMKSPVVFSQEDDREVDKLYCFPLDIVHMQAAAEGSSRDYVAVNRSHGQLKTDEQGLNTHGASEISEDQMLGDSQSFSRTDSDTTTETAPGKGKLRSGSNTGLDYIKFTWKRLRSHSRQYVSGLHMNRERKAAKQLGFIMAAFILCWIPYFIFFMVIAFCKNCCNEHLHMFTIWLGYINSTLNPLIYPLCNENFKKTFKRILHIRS
T5 sequence (P03372 whole entry): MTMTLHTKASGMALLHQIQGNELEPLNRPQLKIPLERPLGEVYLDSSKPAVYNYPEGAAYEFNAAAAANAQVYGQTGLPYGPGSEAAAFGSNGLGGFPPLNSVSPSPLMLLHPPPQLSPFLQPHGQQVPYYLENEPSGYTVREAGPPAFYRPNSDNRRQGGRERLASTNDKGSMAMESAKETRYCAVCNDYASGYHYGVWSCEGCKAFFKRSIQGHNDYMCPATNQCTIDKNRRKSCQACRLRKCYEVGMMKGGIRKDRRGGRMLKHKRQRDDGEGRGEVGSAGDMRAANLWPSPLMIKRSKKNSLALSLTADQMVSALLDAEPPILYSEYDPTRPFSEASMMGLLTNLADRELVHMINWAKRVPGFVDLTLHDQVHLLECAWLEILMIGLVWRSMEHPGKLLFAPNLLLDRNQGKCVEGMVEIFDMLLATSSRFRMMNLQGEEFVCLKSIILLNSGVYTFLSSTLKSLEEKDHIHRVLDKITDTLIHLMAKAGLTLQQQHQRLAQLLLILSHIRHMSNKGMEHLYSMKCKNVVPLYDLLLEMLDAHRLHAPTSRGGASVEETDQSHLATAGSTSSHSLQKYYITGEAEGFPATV
T8 sequence (P08588 whole entry): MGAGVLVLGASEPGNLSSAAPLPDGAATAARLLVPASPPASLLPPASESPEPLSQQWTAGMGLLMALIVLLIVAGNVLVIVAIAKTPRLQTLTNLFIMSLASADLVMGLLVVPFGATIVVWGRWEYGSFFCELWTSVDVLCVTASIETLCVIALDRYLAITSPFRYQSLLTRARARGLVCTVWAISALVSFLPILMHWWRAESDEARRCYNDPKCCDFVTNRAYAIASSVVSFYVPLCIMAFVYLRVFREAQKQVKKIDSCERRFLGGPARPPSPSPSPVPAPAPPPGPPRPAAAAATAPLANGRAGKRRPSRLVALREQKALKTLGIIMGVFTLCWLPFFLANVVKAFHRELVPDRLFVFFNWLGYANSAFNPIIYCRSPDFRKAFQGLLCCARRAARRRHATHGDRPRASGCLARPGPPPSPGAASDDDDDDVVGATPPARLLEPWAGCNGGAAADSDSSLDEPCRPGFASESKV
T3 sequence (P21728 whole entry): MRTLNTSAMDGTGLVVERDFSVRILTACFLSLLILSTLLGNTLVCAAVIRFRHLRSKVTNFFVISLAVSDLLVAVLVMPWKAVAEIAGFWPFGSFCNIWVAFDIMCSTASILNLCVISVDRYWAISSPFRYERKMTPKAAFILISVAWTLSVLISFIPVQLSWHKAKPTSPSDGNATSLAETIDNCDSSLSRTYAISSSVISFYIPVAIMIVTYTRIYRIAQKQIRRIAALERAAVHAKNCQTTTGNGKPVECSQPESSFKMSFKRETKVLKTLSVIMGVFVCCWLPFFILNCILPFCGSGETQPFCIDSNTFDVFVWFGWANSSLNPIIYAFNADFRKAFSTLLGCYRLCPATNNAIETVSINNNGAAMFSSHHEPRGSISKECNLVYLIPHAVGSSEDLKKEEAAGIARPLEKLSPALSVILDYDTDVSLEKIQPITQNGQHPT
T10 sequence (P41595 whole entry): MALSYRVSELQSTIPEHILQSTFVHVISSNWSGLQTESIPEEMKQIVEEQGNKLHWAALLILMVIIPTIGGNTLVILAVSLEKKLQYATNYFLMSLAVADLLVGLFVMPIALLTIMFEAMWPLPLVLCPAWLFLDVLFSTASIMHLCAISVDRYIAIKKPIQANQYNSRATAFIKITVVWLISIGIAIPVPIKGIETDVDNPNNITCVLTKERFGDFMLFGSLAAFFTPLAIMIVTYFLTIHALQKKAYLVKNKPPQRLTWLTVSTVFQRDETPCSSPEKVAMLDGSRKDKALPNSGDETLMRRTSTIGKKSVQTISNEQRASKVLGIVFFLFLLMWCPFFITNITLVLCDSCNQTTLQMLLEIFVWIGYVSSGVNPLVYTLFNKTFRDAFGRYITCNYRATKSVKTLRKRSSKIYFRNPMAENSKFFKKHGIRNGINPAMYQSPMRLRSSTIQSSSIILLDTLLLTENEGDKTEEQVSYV

SMILES: CN1C(=O)[C@H](CCCCN)NC(=O)[C@H](CCCN)NCc2cccnc2Sc2c(Cl)ccc(-c3ccc(C(=O)O)cc3)c2CNC(=O)[C@@H]1Cc1c[nH]c2ccccc12 [RO7202110]
- MIC (C. albicans ATCC 90028; ATCC90028): > 64 µg/mL
- MIC [1, 6]: > 64 µg/mL
- MIC 100% ([1]; Study LGC294355, 100%): >64 µg/mL
- MIC 100% ([1]; Study LGC295147, 100%): >64 µg/mL
- MIC 100% ([1]; Study LGC299544, 100%): >64 µg/mL
- MIC 100% ([1]; Study LGC308175, 100%): >64 µg/mL
- Ames (Ames): Negative
- inhibition at 10 µM (Beta2-adrenoreceptor): -11%
- inhibition at 10 µM (Muscarinic receptor M2): -1%
- inhibition at 10 µM (Dopamine D1 receptor): -7%
- inhibition at 10 µM (Histamine H1 receptor): -3%
- inhibition at 10 µM (Estrogen receptor alpha): -7%
- inhibition at 10 µM (Cannabinoid receptor CB1): -24%
- inhibition at 10 µM (Mu opioid receptor): 26%
- inhibition at 10 µM (Beta1-adrenoreceptor): -2%
- inhibition at 10 µM (5HT1A): 13%
- inhibition at 10 µM (5HT2B): 14%
- inhibition at 10 µM [2]: 14%
- percent inhibition [3]: 14%
- percent inhibition (PCP receptor): 9%
- percent inhibition [4]: 2%
- percent inhibition [5]: -1%

SMILES: C[C@@H](O)[C@H]1C(=O)N2C(C(=O)O)=C(S[C@@H]3CN[C@H](C(=O)N(C)C)C3)[C@H](C)[C@H]12 [meropenem, reference compound]
- MIC (C. albicans ATCC 90028; ATCC90028): > 64 µg/mL
- MIC (C. albicans ATCC 90028; ATCC90028, read-out: MIC 100%): > 64 µg/mL
- MIC [1, 6]: ≤ 0.06 µg/mL
- MIC ([1]; ATCC700603, read-out: MIC 100%, Study LGC277937, 100%): ≤ 0.06 µg/mL
- MIC ([1]; ATCC700603, read-out: MIC 100%, Study LGC279800, 100%): ≤ 0.06 µg/mL
- MIC ([1]; ATCC700603, read-out: MIC 100%, Study LGC281440, 100%): ≤ 0.06 µg/mL
- MIC ([1]; ATCC700603, read-out: MIC 100%, Study LGC282160, 100%): ≤ 0.06 µg/mL
- MIC ([1]; ATCC700603, read-out: MIC 100%, Study LGC282623, 100%): ≤ 0.06 µg/mL
- MIC ([1]; ATCC700603, read-out: MIC 100%, Study LGC283932, 100%): ≤ 0.06 µg/mL
- MIC ([1]; ATCC700603, read-out: MIC 100%, Study LGC284200, 100%): ≤ 0.06 µg/mL
- MIC ([1]; ATCC700603, read-out: MIC 100%, Study LGC284879, 100%): ≤ 0.06 µg/mL
- MIC ([1]; ATCC700603, read-out: MIC 100%, Study LGC285582, 100%): ≤ 0.06 µg/mL
- MIC ([1]; ATCC700603, read-out: MIC 100%, Study LGC286210, 100%): ≤ 0.06 µg/mL
- MIC ([1]; ATCC700603, read-out: MIC 100%, Study LGC293598, 100%): ≤ 0.06 µg/mL
- MIC ([1]; ATCC700603, read-out: MIC 100%, Study LGC294355, 100%): ≤ 0.06 µg/mL
- MIC ([1]; ATCC700603, read-out: MIC 100%, Study LGC295147, 100%): ≤ 0.06 µg/mL
- MIC ([1]; ATCC700603, read-out: MIC 100%, Study LGC296813, 100%): ≤ 0.06 µg/mL
- MIC ([1]; ATCC700603, read-out: MIC 100%, Study LGC299544, 100%): ≤ 0.06 µg/mL
- MIC ([1]; ATCC700603, read-out: MIC 100%, Study LGC301026, 100%): ≤ 0.06 µg/mL
- MIC ([1]; ATCC700603, read-out: MIC 100%, Study LGC308175, 100%): ≤ 0.06 µg/mL
- MIC ([1]; ATCC700603, read-out: MIC 100%, Study ROC003, 100%): ≤ 0.06 µg/mL
- MIC ([1]; ATCC700603, read-out: MIC 100%, Study ROC004, 100%): ≤ 0.06 µg/mL
- MIC ([1]; ATCC700603, read-out: MIC 100%, Study ROC005, 100%): ≤ 0.06 µg/mL
- MIC ([1]; ATCC700603, read-out: MIC 100%, Study ROC006, 100%): ≤ 0.06 µg/mL
- MIC ([1]; ATCC700603, read-out: MIC 100%, Study ROC007, 100%): ≤ 0.06 µg/mL
- MIC ([1]; ATCC700603, read-out: MIC 100%, Study ROC008, 100%): 0.12 µg/mL (≈ 0.313 µM)
- MIC ([1]; ATCC700603, read-out: MIC 100%, Study ROC009, 100%): 0.06 µg/mL (≈ 0.156 µM)
- MIC ([1]; ATCC700603, read-out: MIC 100%, Study ROC010, 100%): ≤ 0.06 µg/mL
- MIC ([1]; ATCC700603, read-out: MIC 100%, Study ROC012, 100%): ≤ 0.06 µg/mL
- MIC ([1]; ATCC700603, read-out: MIC 100%, Study ROC013, 100%): ≤ 0.06 µg/mL
